# Experimental data as given in patent US20240279278A1, “NMU RECEPTOR 2 AGONISTS” (Boehringer Ingelheim International GmbH, priority 2023, published 2024).
# Residues, ends and D or L forms follow the SMILES beside them.
# Assays:
# [1] = biological target: T1, human NMUR1 receptor (Homo sapiens, UniProt Q9HB89); test: Radioligand binding competition assay (RLB), human NMUR1 receptor binding (SPA, [125I]-Neuromedin U-25); details: CHO-K1 hNMUR1 cell membranes, 4 hours at RT
# T1 construct: host or cells: CHO-K1
# T1 sequence (Q9HB89 24-426 limits assumed): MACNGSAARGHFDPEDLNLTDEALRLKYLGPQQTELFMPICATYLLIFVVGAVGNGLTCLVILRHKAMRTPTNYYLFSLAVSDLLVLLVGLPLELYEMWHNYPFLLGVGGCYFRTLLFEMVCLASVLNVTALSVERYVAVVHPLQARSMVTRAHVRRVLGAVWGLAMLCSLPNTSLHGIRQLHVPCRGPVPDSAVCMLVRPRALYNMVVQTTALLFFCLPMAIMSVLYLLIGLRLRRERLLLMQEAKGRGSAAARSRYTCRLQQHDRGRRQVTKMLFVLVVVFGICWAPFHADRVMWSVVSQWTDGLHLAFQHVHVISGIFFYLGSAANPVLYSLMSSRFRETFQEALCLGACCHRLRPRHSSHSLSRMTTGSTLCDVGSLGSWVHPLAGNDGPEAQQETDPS
# Source text: Example 2: Radioligand Binding Competition Assay (RLB) Human NMUR1 Receptor Binding 1) Membranes The test is based on membranes prepared from a human NMUR1/Apoaequorin Stable Cell Line (Creative Biogene, Cat. No. CSC-RG1308). Cell Line Description: CHO-NMUR1 cell line is clonally-derived from a CHO-K1 cell line, which has been transfected with a bicistronic expression plasmid containing the sequence coding for the human neuromedin U receptor 1 (NM_006056.4, 180 to 1391). Mosaic-ID: CL16550614 Membrane preparation: Cells were broken by nitrogen cavitation (900 psi, 1 hour). Intact cells were removed by centrifugation (400 rcf, 10 minutes, 4° C.) before the crude membrane fraction was collected by ultracentrifugation (20.000 rcf, 1 hour, 4° C.). 2) Human NMUR1 Receptor Binding Assay (Radioligand: [125l]-Neuromedin U-25) In this Scintillation Proximity Assay (SPA) design, the membranes immobilize directly to the PVT-WGA-PEI type A beads (polyethyleneimine treated polyvinyltoluene beads coupled to wheatgerm agglutinin, Perkin Elmer) via interactions of wheat germ agglutinate and glycosylated membrane structures. Thereby the radioactively la-belled ligand, bound to NMUR1 receptors on the membrane, comes in close proximity to the solid scintillator of the PVT bead. Radioactive human neuromedin U-25 then stimulates the scintillant to emit light. In contrast, radioligand not bound to the receptor is too distant from the bead to elicit a signal. For the Scintillation Proximity Assay the CHO-K1 hNMUR1 cell membranes and SPA-beads are diluted to concentrations, which assure a robust signal to background ratio. The SPA incubation buffer consists of 25 mM Hepes (pH=7.0), 5 mM MgCl2, 1 mM CaCl2, 10 ug/mL Saponine and 0.1% bovine serum albumin and is used for all dilutions. Final assay setup in 96-well plate: 20 μL of 10× test compound dilutions+40 μL of 5× [125l]-Neuromedin U-25 (1× approx. 30 pM; 2000 μCi/mmol (μCi=microcurie))+60 μL membrane dilution (approx. 1.0 μg membrane protein)+80 μL SPA bead dilution (250 μg). The assay is incubated for 4 hours at RT, including controls for specific binding where no displacer is added and non-specific binding by adding unlabeled hNMU-25 at 100 nM. Bound radioactivity is determined by scintillation counting (MicroBeta Trilux 1450, Perkin Elmer, detection of 125I decay). […] The system assumes one binding site with no relevant radioligand depletion (<10%) and that the binding is reversible and at equilibrium. [formula] [formula]
# [2] = physchem; format: physicochemical
# Protocol: Example 6: Solubility Determination
# Peptides (as TFA-salts) were weighed out in a filter unit (Mini-UniPrep Syringeless Filter 0.45 μm, Whatman PVDF), and 0.1 M phosphate buffer at pH 6 to 8 was added to achieve 10 mg/mL final peptide concentration. The peptides were dissolved by shaking the filter units horizontally at 350 rpm for 2 hours at room temperature. Samples were then filtered to remove any insoluble particles. Controls were prepared by weighing out the corresponding peptide solid material and dissolving it in an appropriate vehicle (e.g. buffer or DMSO) to a final concentration of 1 mg/mL. Both, the control and sample were analyzed by reversed phase chromatography. The area under the peak of the sample was compared to the control and the solubility was calculated based on that ratio. The pH was measured and recorded for each sample.
# [3] = biological target: human NMUR2 receptor (Homo sapiens, UniProt Q9GZQ4); test: IP1 Gq HTRF assay, activation of human NMUR2 in buffer; format: cell-based; design: expressed in transfected cells; host or cells: CHO-K1; details: for EC50: CHO-K1 cells expressing human NMUR2, stimulation buffer with 0.1% BSA, read-out: EC50 (hNMUR2) buffer
# Chain of human NMUR2 receptor (Q9GZQ4 whole entry): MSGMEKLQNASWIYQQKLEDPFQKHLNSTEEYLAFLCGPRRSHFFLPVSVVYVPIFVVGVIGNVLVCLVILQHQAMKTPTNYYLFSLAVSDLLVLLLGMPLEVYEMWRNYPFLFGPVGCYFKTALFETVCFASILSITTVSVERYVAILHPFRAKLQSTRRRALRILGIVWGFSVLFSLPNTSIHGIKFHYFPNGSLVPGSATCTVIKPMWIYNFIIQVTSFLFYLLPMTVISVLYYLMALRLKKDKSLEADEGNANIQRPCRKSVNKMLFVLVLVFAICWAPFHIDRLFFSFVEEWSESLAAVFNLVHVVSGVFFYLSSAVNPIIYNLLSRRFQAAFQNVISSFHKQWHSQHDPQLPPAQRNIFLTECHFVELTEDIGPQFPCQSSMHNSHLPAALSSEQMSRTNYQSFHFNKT
# How it was run: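 IP-One HTRF competition (665/620 nm ratio) read after 1 h agonist exposure at 37 °C in pH 7.4 HEPES/HBSS stimulation buffer containing 50 mM LiCl, 0.1% BSA, 1% DMSO. Cells: CHO-K1 stably expressing human NMUR2 or NMUR1. EC50 by 4-parameter nonlinear regression of 8-point curves.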
solubility at 2 h ([2]; pH 7.2) [µg/mL],Compound,Ki [1] [nM],EC50 [3] [nM],solubility at 2 h ([2]; pH 7.3) [µg/mL],solubility at 2 h ([2]; pH 7) [µg/mL],EC50 (hNMUR1)/EC50 (hNMUR2) ([3]; selectivity for NMUR2 over NMUR1 from IP1 assay in buffer (Example 3))
8800,"CCCC[C@H](NC(=O)[C@H](CC(C)C)N(C)C(=O)[C@H](Cc1ccccc1)NC(=O)[C@H](Cc1ccc(O)cc1)NC(=O)CN1CCN(CCNC(=O)CN(C)C(=O)CN(C)C(=O)CN(C)C(=O)CN(C)C(=O)CN(C)C(=O)CN(C)C(=O)CN(C)C(=O)CN(C)C(=O)CN(C)C(=O)CN(C)C(=O)CN(C)C(=O)CN(C)C(=O)CC[C@H](NC(=O)CC[C@H](NC(=O)CC[C@H](NC(=O)CCCCCCCCCCCCCCCCC(=O)O)C(=O)O)C(=O)O)C(=O)O)CC1)C(=O)N[C@@H](CCN)C(=O)N(C)[C@@H](C)C(=O)N[C@@H](CCCNC(=N)N)C(=O)NCC(N)=O [Compound 38, C18DA-gGlu3-Sar12-AEPipAc-Tyr-Phe-NMeLeu-Nle-Dbu-NMeAla-Arg-Gly-NH2]",> 10000,1.9,–,–,–
–,"CCCC[C@H](NC(=O)[C@H](CC(C)C)N(C)C(=O)[C@H](Cc1ccccc1)NC(=O)[C@H](Cc1ccc(O)cc1)NC(=O)CN1CCN(CCNC(=O)CN(C)C(=O)CN(C)C(=O)CN(C)C(=O)CN(C)C(=O)CN(C)C(=O)CN(C)C(=O)CN(C)C(=O)CN(C)C(=O)CN(C)C(=O)CN(C)C(=O)CN(C)C(=O)CN(C)C(=O)CN(C)C(=O)CN(C)C(=O)CN(C)C(=O)CC[C@H](NC(=O)CC[C@H](NC(=O)CC[C@H](NC(=O)CCCCCCCCCCCCCCCCC(=O)O)C(=O)O)C(=O)O)C(=O)O)CC1)C(=O)N[C@@H](CCN)C(=O)N1CCC[C@H]1C(=O)N[C@@H](CCCNC(=N)N)C(=O)NCC(N)=O [Compound 26, C18DA-gGlu3-Sar15-AEPipAc-Tyr-Phe-NMeLeu-Nle-Dbu-Pro-Arg-Gly-NH2] (HELM PEPTIDE1{[O=C(O)CCCCCCCCCCCCCCCCC(=O)[*:2]].[gGlu].[gGlu].[gGlu].[Sar].[Sar].[Sar].[Sar].[Sar].[Sar].[Sar].[Sar].[Sar].[Sar].[Sar].[Sar].[Sar].[Sar].[Sar].[O=C(CN1CCN(CCN[*:1])CC1)[*:2]].Y.F.[meL].[Nle].[Dab].P.R.G.[am]}$$$$V2.0)",> 10000,1.5,7700,–,–
–,"CCCC[C@H](NC(=O)[C@H](CC(C)C)N(C)C(=O)[C@H](Cc1ccccc1)NC(=O)[C@H](Cc1ccc(O)cc1)NC(=O)CN1CCN(CCNC(=O)CN(C)C(=O)CN(C)C(=O)CN(C)C(=O)CN(C)C(=O)CN(C)C(=O)CN(C)C(=O)CN(C)C(=O)CN(C)C(=O)CN(C)C(=O)CN(C)C(=O)CN(C)C(=O)CN(C)C(=O)CN(C)C(=O)CN(C)C(=O)CN(C)C(=O)CC[C@H](NC(=O)CC[C@H](NC(=O)CC[C@H](NC(=O)CCCCCCCCCCCCCCCCC(=O)O)C(=O)O)C(=O)O)C(=O)O)CC1)C(=O)N[C@@H](CCCN)C(=O)N(C)[C@@H](C)C(=O)N[C@@H](CCCNC(=N)N)C(=O)NCC(N)=O [Compound 22, C18DA-gGlu3-Sar15-AEPipAc-Tyr-Phe-NMeLeu-Nle-Orn-NMeAla-Arg-Gly-NH2] (HELM PEPTIDE1{[O=C(O)CCCCCCCCCCCCCCCCC(=O)[*:2]].[gGlu].[gGlu].[gGlu].[Sar].[Sar].[Sar].[Sar].[Sar].[Sar].[Sar].[Sar].[Sar].[Sar].[Sar].[Sar].[Sar].[Sar].[Sar].[O=C(CN1CCN(CCN[*:1])CC1)[*:2]].Y.F.[meL].[Nle].[Orn].[meA].R.G.[am]}$$$$V2.0)",> 10000,3.2,8600,–,–
–,"CCCC[C@H](NC(=O)[C@H](CC(C)C)N(C)C(=O)[C@H](Cc1ccccc1)NC(=O)[C@H](Cc1ccc(O)cc1)NC(=O)CN1CCN(CCNC(=O)CN(C)C(=O)CN(C)C(=O)CN(C)C(=O)CN(C)C(=O)CN(C)C(=O)CN(C)C(=O)CN(C)C(=O)CN(C)C(=O)CN(C)C(=O)CN(C)C(=O)CN(C)C(=O)CN(C)C(=O)CN(C)C(=O)CN(C)C(=O)CN(C)C(=O)CC[C@H](NC(=O)CC[C@H](NC(=O)CC[C@H](NC(=O)CCCCCCCCCCCCCCCCC(=O)O)C(=O)O)C(=O)O)C(=O)O)CC1)C(=O)N[C@@H](CCCNC(=N)N)C(=O)N1CCC[C@H]1C(=O)N[C@@H](CCCNC(=N)N)C(=O)NCC(N)=O [Compound 7, C18DA-gGlu3-Sar15-AEPipAc-Tyr-Phe-NMeLeu-Nle-Arg-Pro-Arg-Gly-NH2] (HELM PEPTIDE1{[O=C(O)CCCCCCCCCCCCCCCCC(=O)[*:2]].[gGlu].[gGlu].[gGlu].[Sar].[Sar].[Sar].[Sar].[Sar].[Sar].[Sar].[Sar].[Sar].[Sar].[Sar].[Sar].[Sar].[Sar].[Sar].[O=C(CN1CCN(CCN[*:1])CC1)[*:2]].Y.F.[meL].[Nle].R.P.R.G.[am]}$$$$V2.0)",3740,1.2,–,7000,208
–,"CCCC[C@H](NC(=O)[C@H](CC(C)C)N(C)C(=O)[C@H](Cc1ccccc1)NC(=O)[C@H](Cc1ccc(O)cc1)NC(=O)CN1CCN(CCNC(=O)CN(C)C(=O)CN(C)C(=O)CN(C)C(=O)CN(C)C(=O)CN(C)C(=O)CN(C)C(=O)CN(C)C(=O)CN(C)C(=O)CN(C)C(=O)CN(C)C(=O)CN(C)C(=O)CN(C)C(=O)CN(C)C(=O)CN(C)C(=O)CN(C)C(=O)CC[C@H](NC(=O)CC[C@H](NC(=O)CC[C@H](NC(=O)CCCCCCCCCCCCCCCCCCC(=O)O)C(=O)O)C(=O)O)C(=O)O)CC1)C(=O)N[C@@H](CCN)C(=O)N(C)[C@@H](C)C(=O)N[C@@H](CCCNC(=N)N)C(=O)NCC(N)=O [Compound 43, C20DA-gGlu3-Sar15-AEPipAc-Tyr-Phe-NMeLeu-Nle-Dbu-NMeAla-Arg-Gly-NH2] (HELM PEPTIDE1{[O=C(O)CCCCCCCCCCCCCCCCCCC(=O)[*:2]].[gGlu].[gGlu].[gGlu].[Sar].[Sar].[Sar].[Sar].[Sar].[Sar].[Sar].[Sar].[Sar].[Sar].[Sar].[Sar].[Sar].[Sar].[Sar].[O=C(CN1CCN(CCN[*:1])CC1)[*:2]].Y.F.[meL].[Nle].[Dab].[meA].R.G.[am]}$$$$V2.0)",> 10000,3.9,–,5600,–
10000,"CCCC[C@H](NC(=O)[C@H](CC(C)C)N(C)C(=O)[C@H](Cc1ccccc1)NC(=O)[C@H](Cc1ccc(O)cc1)NC(=O)CN1CCN(CCNC(=O)CN(C)C(=O)CN(C)C(=O)CN(C)C(=O)CN(C)C(=O)CN(C)C(=O)CN(C)C(=O)CN(C)C(=O)CN(C)C(=O)CN(C)C(=O)CN(C)C(=O)CN(C)C(=O)CN(C)C(=O)CC[C@H](NC(=O)CC[C@H](NC(=O)CC[C@H](NC(=O)CCCCCCCCCCCCCCCCC(=O)O)C(=O)O)C(=O)O)C(=O)O)CC1)C(=O)N[C@@H](CCCNC(=N)N)C(=O)N1CCC[C@H]1C(=O)N[C@@H](CCCNC(=N)N)C(=O)NCC(N)=O [Compound 25, C18DA-gGlu3-Sar12-AEPipAc-Tyr-Phe-NMeLeu-Nle-Arg-Pro-Arg-Gly-NH2]",> 10000,1.1,–,–,–
